Test results reported in PMC11474028, “Lipopeptide antibiotics disrupt interactions of undecaprenyl phosphate with UptA” (Proceedings of the National Academy of Sciences of the …, 2024).

Columns and labels:
UptA [1] = target: T1, UptA (Bacillus subtilis, UniProt O31823); assay: biochemical; type: binding; conditions: for binding to UptA by lipid chain length (in words): 4 µM UptA, 10-fold molar excess (40 µM) of lipid, pH 8.0, 200 mM ammonium acetate, 0.05% LDAO
Protocol: We explored the binding affinity of UptA toward C55-P by recording mass spectra for solutions containing 2.5 µM UptA and 0 to 40 µM C55-P in 200 mM ammonium acetate, 0.05% LDAO at pH 8.0. […] Further increase in the concentration of C55-P enhanced the intensity of the UptA:C55-P complex, together with the emergence of additional binding events (Fig. 2A). We deconvoluted the spectra ([34]) to extract mean relative intensities of bound and unbound forms of UptA in the spectral series.
To investigate the binding selectivity of UptA for monophosphate (C55-P) versus diphosphate (C55-PP) forms of the lipid carrier, we performed comparative binding assays. First, we recorded mass spectra for a mixture of UptA with increasing concentrations of C55-PP (SI Appendix, Fig. S3). […] We then fit the data to Hill equation to obtain an apparent Kd for this system.
UptA is a member of the DedA family of transporters whose cellular functions are potentially driven by proton-motive force and provide conditional fitness to bacteria under alkaline conditions ([25], [26], [36]). […] To this end, we equilibrated C55-P with UptA at a protein/ligand molar ratio of 1:4 in a buffer of the same composition but at pH 8.0 and 5.0. […] As a negative control, we tested for pH sensitivity of C55-P binding to MraY, the latter being the downstream enzyme in the peptidoglycan pathway that couples UM5 to C55-P. To this end, we equilibrated MraY and C55-P at a molar ratio of 1:4 in a buffer of pH 8.0 and pH 5.0.
Next, we investigated the chain length selectivity of UptA by testing its interaction with geranylgeranyl phosphate (C20-P), hexaprenyl phosphate (C30-P), and C55-P; the latter representing the native form of the lipid carrier in the model organisms B. subtilis and E. coli ([39]). For this experiment, we incubated 4 µM UptA with a 10-fold molar excess of C20-P, C30-P, and C55-P at pH 8.0 and recorded spectra under the same conditions. […] The length and stereochemistry of lipid tails can influence their interactions with membrane proteins ([40]).
(§1) Detailed experimental procedures are provided in SI Appendix. Briefly, UptA (wild type and mutants) was expressed in E. coli C43(DE3) cells (Lucigen) with GFP fusion on the C-terminus and solubilized from the membrane fraction by n-dodecyl-β-D-maltopyranoside (DDM). After purification by affinity chromatography, the GFP was cleaved by TEV protease and removed, and UptA was further purified by size-exclusion chromatography in a buffer containing 20 mM Tris-HCl (pH 8.0), 200 mM NaCl, 0.02% DDM. Before measurements, proteins were buffer-exchanged into 0.05% LDAO, 200 mM ammonium acetate at the desired pH using a centrifugal buffer exchange device (Micro Bio-Spin 6, Bio-Rad). Stock solutions of lipids were prepared from chloroform/methanol solution by evaporating aliquots of known volume in a SpeedVac. After drying, the lipid films were weighed and resuspended to a final concentration of 0.5 mM in 200 mM ammonium acetate and 0.05% LDAO by vertexing.

UptA [2] = target: T1, UptA; assay: Native MS of phospholipid binding to UptA; conditions: for UptA-lipid complexes formed (stoichiometry, in words): 4 µM UptA with 10 µM lipid, native MS
Excerpt: Proteins belonging to the DedA family are a widespread family of transporters and are proposed to flip diverse lipids, including carrier lipids and membrane phospholipids. We therefore probed the interaction of UptA with membrane phospholipids to understand whether the latter could modulate its function. For this purpose, we selected anionic phosphatidylglycerols (PG) and zwitterionic phosphatidylethanolamines (PE), representing the major classes of phospholipid headgroups found in B. subtilis ([41], [42]). We recorded mass spectra of solutions containing 4 µM UptA incubated with 10 µM a15:0-i15:0 PE and 10 µM a15:0-i15:0 PG (a15:0, anteiso-pentadecanoic acid; i15:0, iso-pentadecanoic acid). The fatty acid composition of these lipids closely mimics those of native B. subtilis lipids (see below). The resulting spectra display peaks corresponding to UptA in apo and lipid-bound forms in both cases (Fig. 4 A and B). […] We therefore hypothesize that UptA interacts more favorably with PG than with PE.
To verify the lipid binding preference of UptA with more native-like lipids, we prepared lipid extracts from B. subtilis membranes (Materials and Methods). We then incubate an aliquot of the resulting crude lipids (SI Appendix, Fig. S8) with UptA. The spectra yielded peaks assigned to UptA in complex with cardiolipins (~1,326 Da) and a range of phospholipids, predominantly 694 Da, 721 Da, 748 Da, and 776 Da species (Fig. 4 D and E). To identify these lipids, we performed tandem MS/MS, isolating the lipid species and subjecting it to collisional activation. […] The fatty acid fragments are mixed populations, predominantly 15:0-15:0, 15:0-17:0, 16:0-16:0, and 16:0-18:1 (SI Appendix, Fig. S9) which are the typical fatty acids from B. subtilis membrane phospholipids ([42]). We therefore conclude that UptA interacts more favorably with the anionic cardiolipins and phosphatidylglycerols than with the zwitterionic phosphatidylethanolamines in the membrane lipid extracts.
as §1, with “vertexing. Stock solutions of 0.5 mM amphomycin, aspartocin D, daptomycin, polymyxin B, polymyxin E, and bacitracin were made in the same buffer. All experiments were repeated three times from newly prepared stock solutions. Native mass spectrometry was performed on a Q-Exactive hybrid quadrupole-Orbitrap mass spectrometer (Thermo Fisher Scientific, Bremen, Germany), and lipid identification was performed on an Orbitrap Eclipse Tribrid mass spectrometer (Thermo). […]” for “vertexing.”
Lipid extracts from B. Subtilis
B. subtilis strain 168 (ATCC 23857) was cultivated in […] LB media at 37 °C until OD600 nm 1.2 under aurobic conditions. Cells were harvested by centrifugation at 4,000 g for 20 minutes and resuspended in 20 mM Tris-HCl (pH 8.0), 150 mM NaCl. Cells were lysed by 5-6 passes through a microfluidizer at 20,000 psi. The lysates were clarified by centrifugation at 4,000 g for 10 minutes, and the totoal membrane was pelleted at 120,000 g for 1 h. The membrane pellet was ressupended […]

UptA [3] = target: T1, UptA; assay: Native MS of antibiotic binding to UptA; conditions: 2.5 µM UptA, 10 µM C55-P, antibiotic up to 100 µM (polymyxins 100 µM), 0.05% LDAO, 200 mM ammonium acetate, 75 V
Protocol: We next investigate how UptA and its complex with C55-P interact with a range of cell-wall targeting antibiotics including the lipopeptides daptomycin and amphomycin. […] We investigated whether daptomycin affects C55-P binding to UptA by recording spectra for solutions containing 2.5 µM UptA, 10 µM C55-P, and different concentrations of daptomycin.
(§2) Amphomycin and derivatives are known to kill bacteria by forming complexes with free C55-P ([46]), however, whether or not this involves a direct interaction with a protein cellular target is not known. We therefore investigated how amphomycin affects the UptA:C55-P complex. We recorded spectra for solutions containing 2.5 µM UptA, 10 µM C55-P and then equilibrated aliquots with increasing concentrations of amphomycin.
The amphiphilic nature of daptomycin and amphomycin raises the possibility that these lipopeptide antibiotics may promiscuously bind to UptA in a nonspecific manner. We probe this possibility by recording spectra for UptA:C55-P solutions in the presence of 100 µM polymyxin B and 100 µM polymyxin E. These polymyxins are membrane-disrupting lipopeptides that target the outer membrane lipopolysaccharides in Gram-negative bacteria ([47]) but without a known affinity for C55-P or UptA.
To this end, we prepared UptA:C55-P mixtures and then equilibrated aliquots with bacitracin and vancomycin.
as §1, with “vertexing. Stock solutions of 0.5 mM amphomycin, aspartocin D, daptomycin, polymyxin B, polymyxin E, and bacitracin were made in the same buffer. All experiments were repeated three times from newly prepared stock solutions. Native mass spectrometry was performed on a Q-Exactive hybrid quadrupole-Orbitrap mass spectrometer (Thermo Fisher Scientific, Bremen, Germany), and lipid identification was performed on an Orbitrap Eclipse Tribrid mass spectrometer (Thermo). […]” for “vertexing.”

UptA:C55-P complex = assay: Native MS of UptA:C55-P complex in the presence of antibiotics; type: binding, Bacillus subtilis; conditions: 2.5 µM UptA, 10 µM C55-P, 0 to 100 µM antibiotic, 75 V; mean of three independent replicates
Protocol: as §2
(A) Mass spectra (6+ charge state) for solutions containing 2.5 µM UptA and 10 µM C55-P incubated with 0 to 100 µM amphomycin. (B) Relative intensity of C55-P bound to UptA in the presence of amphomycin and daptomycin. The bar represents the mean of three independent replicates shown as data points and error bars are SD. […] (C) Fraction of C55-P bound to UptA in the presence of cell wall targeting antibiotics. Each sample contains 2.5 µM UptA, 10 µM C55-P and 100 µM of indicated antibiotic, and spectra were acquired using the same instrument settings and collisional activation of 75 V. The bar represents the mean of three independent replicates shown as data points, and the error bar represents SD. […]
as §1, with “vertexing. Stock solutions of 0.5 mM amphomycin, aspartocin D, daptomycin, polymyxin B, polymyxin E, and bacitracin were made in the same buffer. All experiments were repeated three times from newly prepared stock solutions. Native mass spectrometry was performed on a Q-Exactive hybrid quadrupole-Orbitrap mass spectrometer (Thermo Fisher Scientific, Bremen, Germany), and lipid identification was performed on an Orbitrap Eclipse Tribrid mass spectrometer (Thermo). […]” for “vertexing.”

T1 sequence (O31823 whole entry): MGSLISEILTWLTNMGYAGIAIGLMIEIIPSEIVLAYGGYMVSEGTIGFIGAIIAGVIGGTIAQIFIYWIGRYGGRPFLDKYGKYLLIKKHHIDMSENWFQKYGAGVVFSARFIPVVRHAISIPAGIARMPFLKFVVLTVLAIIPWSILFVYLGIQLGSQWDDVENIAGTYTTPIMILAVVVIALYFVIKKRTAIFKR

Compound: CC(C)=CCC/C(C)=C/CC/C(C)=C/CC/C(C)=C/COP(=O)(O)O [C20-P, geranylgeranyl phosphate]
- binding to UptA by lipid chain length (in words) (UptA [1]): low-intensity peaks corresponding by mass to UptA:C20-P complexes, leaving most of the protein in the apo form

Compound: CC(C)=CCCC(C)=CCCC(C)=CCCC(C)=CCCC(C)=CCCC(C)=CCOP(=O)(O)O [C30-P, hexaprenyl phosphate]
- binding to UptA by lipid chain length (in words) (UptA [1]): higher binding affinity of UptA to C30-P compared to C20-P

Compound: CC(C)=CCC/C(C)=C/CC/C(C)=C/CC/C(C)=C\CC/C(C)=C\CC/C(C)=C\CC/C(C)=C\CC/C(C)=C\CC/C(C)=C\CC/C(C)=C\CC/C(C)=C\COP(=O)(O)OP(=O)(O)O [C55-PP, undecaprenyl diphosphate]
- selectivity of UptA for C55-P versus C55-PP (in words) (UptA [1]; native MS, 200 mM ammonium acetate, pH 8, 0.05% LDAO): UptA bind C55-PP but with lesser intensities compared to C55-P
- Kd (UptA [1]; read-out: apparent Kd for the binding of one ligand molecule (1×) to UptA): 15.3 µM

Compound: CCC(C)CCCCCCCCCCC(=O)OC[C@H](COP(=O)(O)OCCN)OC(=O)CCCCCCCCCCCC(C)C (stereo partly shown) [a15:0-i15:0 PE]
- UptA-lipid complexes formed (stoichiometry, in words) (UptA [2]): only a 1:1 complex

Compound: CC[C@@H](C)CCCCCCCCCCC(=O)OC[C@H](COP(=O)([O-])OCC(O)CO)OC(=O)CCCCCCCCCCCC(C)C.[Na+] (stereo partly shown) [a15:0-i15:0 PG]
- mean relative intensity of UptA in complex with phospholipid, comparison (in words) (UptA [2]; 4 µM UptA with 10 µM lipid (stated for a15:0-i15:0 lipids), mean of three independent replicates): higher than for a15:0-i15:0 PE
- UptA-lipid complexes formed (stoichiometry, in words) (UptA [2]): 1:1 and 1:2 protein-lipid complexes

Compound: polymyxin B
- binding of antibiotic to UptA (in words) (UptA [3]): do not bind to UptA
- effect of antibiotic on UptA:C55-P complex (in words) (UptA:C55-P complex): attenuation of C55-P binding to UptA (SI Appendix, Fig. S10), but this effect is less significant compared to the impact of amphomycin analogs

Compound: polymyxin E
- binding of antibiotic to UptA (in words) (UptA [3]): do not bind to UptA
- effect of antibiotic on UptA:C55-P complex (in words) (UptA:C55-P complex): attenuation of C55-P binding to UptA (SI Appendix, Fig. S10), but this effect is less significant compared to the impact of amphomycin analogs

Compound: vancomycin
- binding of antibiotic to UptA (in words) (UptA [3]): bind to UptA but with very low intensities
- effect of antibiotic on UptA:C55-P complex (in words) (UptA:C55-P complex): no observable impact on C55-P binding
